Test results published in patent publication US20090221653A1, “7-(2-amino-1-hydroxy-ethyl)-4-hydroxybenzothiazol-2(3H)-one-derivatives as beta2 adrenoreceptor agonists” (AstraZeneca AB, priority 2005, published 2009).
Structures can show the parent of a compound that is named as a salt.

What was measured:
[1] = target: T1, recombinant human α1D receptor (Homo sapiens, UniProt P25100); assay: Adrenergic α1D selectivity assay, inhibition of [3H]-prazosin binding; settings: HEK293 membranes, [3H]-prazosin 0.3 nM; read-out: α1 bind pIC50 (converted)
T1 construct: expressed in transfected cells; host or cells: HEK293
T1 sequence (P25100 1-572): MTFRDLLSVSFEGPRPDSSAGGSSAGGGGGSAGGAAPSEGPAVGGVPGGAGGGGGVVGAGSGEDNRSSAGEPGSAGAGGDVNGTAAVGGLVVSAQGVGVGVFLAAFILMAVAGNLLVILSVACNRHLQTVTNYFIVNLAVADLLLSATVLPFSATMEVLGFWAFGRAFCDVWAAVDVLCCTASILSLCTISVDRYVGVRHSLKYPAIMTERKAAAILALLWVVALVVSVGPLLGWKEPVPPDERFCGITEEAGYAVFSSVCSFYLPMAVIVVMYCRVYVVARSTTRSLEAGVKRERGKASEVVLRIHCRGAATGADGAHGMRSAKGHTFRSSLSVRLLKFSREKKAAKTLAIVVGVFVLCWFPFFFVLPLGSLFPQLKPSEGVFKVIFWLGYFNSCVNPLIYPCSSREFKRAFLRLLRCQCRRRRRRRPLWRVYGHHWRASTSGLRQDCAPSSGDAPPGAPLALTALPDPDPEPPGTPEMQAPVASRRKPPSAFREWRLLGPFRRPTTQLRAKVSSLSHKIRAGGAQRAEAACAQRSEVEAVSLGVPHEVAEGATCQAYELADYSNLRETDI
Description: Membranes were prepared from human embryonic kidney 293 (HEK293) cells expressing recombinant human α1D receptor. These were diluted in Assay Buffer (50 mM HEPES, 1 mM EDTA, 0.1% gelatin, pH 7.4) to provide a final concentration of membranes that gave a clear window between maximum and minimum specific binding.
(§1) Assays were performed in U-bottomed 96-well polypropylene plates. 10 μL [^3H]-prazosin (0.3 nM final concentration) and 10 μL of test compound (10× final concentration) were added to each test well. For each assay plate 8 replicates were obtained for [^3H]-prazosin binding in the presence of 10 μL vehicle (10% (v/v) DMSO in Assay Buffer; defining maximum binding) or 10 μL BMY7378 (10 μM final concentration; defining non-specific binding (NSB)). Membranes were then added to achieve a final volume of 100 μL. The plates were incubated for 2 hours at room temperature and then filtered onto PEI coated GF/B filter plates, pre-soaked for 1 hour in Assay Buffer, using a 96-well plate Tomtec cell harvester. Five washes with 250 μL wash buffer (50 mM HEPES, 1 mM EDTA, pH 7.4) were performed at 4° C. to remove unbound radioactivity. The plates were dried then sealed from underneath using Packard plate sealers and MicroScint-O (50 μL) was added to each well. The plates were sealed (TopSeal A) and filter-bound radioactivity was measured with a scintillation counter (TopCount, Packard BioScience) using a 3-minute counting protocol.
(§2) Total specific binding (B0) was determined by subtracting the mean NSB from the mean maximum binding. NSB values were also subtracted from values from all other wells.

Adrenergic β2 = target: T2, Adrenergic β2 (Homo sapiens, UniProt P07550); assay: Alternative Adrenergic β2 Mediated cAMP Production in H292 cells (AlphaScreen cAMP detection); assay type: cell-based; settings: for EC50: cAMP, test compounds incubated 60 minutes, 300 μM rolipram, read-out: β2 pEC50 (converted); for β2 Int Act: fraction relative to the maximum activity determined for formoterol, 60 minutes incubation
T2 construct: endogenous in cells; host or cells: H292 cells
T2 sequence (P07550 whole entry): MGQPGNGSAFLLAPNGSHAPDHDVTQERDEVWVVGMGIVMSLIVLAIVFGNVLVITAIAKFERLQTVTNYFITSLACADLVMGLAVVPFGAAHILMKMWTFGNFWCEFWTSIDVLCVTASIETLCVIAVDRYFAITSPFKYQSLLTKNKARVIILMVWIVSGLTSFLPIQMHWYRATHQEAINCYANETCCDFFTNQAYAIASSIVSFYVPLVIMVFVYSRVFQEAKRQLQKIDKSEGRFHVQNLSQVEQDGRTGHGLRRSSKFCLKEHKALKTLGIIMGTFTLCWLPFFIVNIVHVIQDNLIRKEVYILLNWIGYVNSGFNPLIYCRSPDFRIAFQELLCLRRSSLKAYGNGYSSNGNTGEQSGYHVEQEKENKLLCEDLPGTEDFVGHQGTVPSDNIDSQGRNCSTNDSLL
Description: H292 cells were grown in 225 cm2 flasks incubator at 37° C., 5% CO2 in RPMI medium containing, 10% (v/v) FBS (foetal bovine serum) and 2 mM L-glutamine.
Adherent H292 cells were removed from tissue culture flasks by treatment with Accutase™ cell detachment solution for 15 minutes. Flasks were incubated for 15 minutes in a humidified incubator at 37° C., 5% CO2. Detached cells were re-suspended in RPMI media (containing 10% (v/v) FBS and 2 mM L-glutamine) at 0.05×10^6 cells per mL. 5000 cells in 100 μL were added to each well of a tissue-culture-treated 96-well plate and the cells incubated overnight in a humidified incubator at 37° C., 5% CO2. The culture media was removed and cells were washed twice with 100 μL assay buffer and replaced with 50 μL assay buffer (HBSS solution containing 10 mM HEPES pH7.4 and 5 mM glucose). […] Cells were incubated with rolipram for 10 minutes after which time test compounds were added and the cells were incubated for 60 minutes at room temperature. […] The reaction was stopped by removing supernatants, washing once with 100 μL assay buffer and replacing with 50 μL lysis buffer. The cell monolayer was frozen at −80° C. for 30 minutes (or overnight).
The concentration of cAMP (cyclic adenosine monophosphate) in the cell lysate was determined using AlphaScreen™ methodology. The frozen cell plate was thawed for 20 minutes on a plate shaker then 10 μL of the cell lysate was transferred to a 96-well white plate. 40 μL of mixed AlphaScreen™ detection beads pre-incubated with biotinylated cAMP, was added to each well and the plate incubated at room temperature for 10 hours in the dark. The AlphaScreen™ signal was measured using an EnVision spectrophotometer (Perkin-Elmer Inc.) with the recommended manufacturer's settings. cAMP concentrations were determined by reference to a calibration curve determined in the same experiment using standard cAMP concentrations. Concentration response curves for agonists were constructed and data was fitted to a four parameter logistic equation to determine both the pEC50 and Intrinsic Activity.

[2] = target: T3, recombinant human adrenergic beta 1 receptors (Homo sapiens, UniProt P08588); assay: Adrenergic β1 selectivity assay, inhibition of [125I]-Iodocyanopindolol binding; settings: membranes, [125I]-Iodocyanopindolol; read-out: β1 bind pIC50 (converted)
T3 construct: purchased Euroscreen
T3 sequence (P08588 whole entry): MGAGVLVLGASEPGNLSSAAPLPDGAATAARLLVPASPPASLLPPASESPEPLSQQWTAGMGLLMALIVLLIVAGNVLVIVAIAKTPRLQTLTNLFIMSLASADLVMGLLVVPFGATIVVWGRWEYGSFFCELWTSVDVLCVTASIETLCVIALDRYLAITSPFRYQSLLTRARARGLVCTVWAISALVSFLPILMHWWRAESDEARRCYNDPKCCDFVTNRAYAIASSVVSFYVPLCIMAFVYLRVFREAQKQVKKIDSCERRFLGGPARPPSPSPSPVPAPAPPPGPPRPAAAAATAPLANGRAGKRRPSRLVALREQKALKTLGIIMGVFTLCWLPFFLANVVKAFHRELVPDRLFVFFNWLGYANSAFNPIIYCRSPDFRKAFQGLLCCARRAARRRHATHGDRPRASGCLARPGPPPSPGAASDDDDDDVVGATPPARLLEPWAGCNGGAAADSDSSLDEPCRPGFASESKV
Description: (§3) Membranes containing recombinant human adrenergic beta 1 receptors were obtained from Euroscreen. These were diluted in Assay Buffer (50 mM HEPES, 1 mM EDTA, 120 mM NaCl, 0.1% gelatin, pH 7.4) to provide a final concentration of membranes that gave a clear window between maximum and minimum specific binding.
as §1, with “10 μL [^3H]-prazosin (0.3 nM final concentration) and 10 μL of test compound (10× final concentration) were added to each test well. For each assay plate 8 replicates were obtained for [^3H]-prazosin binding in the presence of 10 μL vehicle (10% (v/v) DMSO in Assay Buffer; defining maximum binding) or 10 μL BMY7378 (10 μM final concentration; defining non-specific binding (NSB)).” left out, “EDTA, 120 mM NaCl,” for “EDTA,”
as §2

[3] = target: T4, recombinant human Dopamine Subtype D2s receptors (Homo sapiens, UniProt P14416); assay: Dopamine D2 selectivity assay, inhibition of [3H]-spiperone binding; settings: membranes, [3H]-spiperone 0.16 nM; read-out: D2 bind pIC50 (converted)
T4 construct: purchased Perkin Elmer
T4 sequence (P14416 1-414 isoform P14416-2): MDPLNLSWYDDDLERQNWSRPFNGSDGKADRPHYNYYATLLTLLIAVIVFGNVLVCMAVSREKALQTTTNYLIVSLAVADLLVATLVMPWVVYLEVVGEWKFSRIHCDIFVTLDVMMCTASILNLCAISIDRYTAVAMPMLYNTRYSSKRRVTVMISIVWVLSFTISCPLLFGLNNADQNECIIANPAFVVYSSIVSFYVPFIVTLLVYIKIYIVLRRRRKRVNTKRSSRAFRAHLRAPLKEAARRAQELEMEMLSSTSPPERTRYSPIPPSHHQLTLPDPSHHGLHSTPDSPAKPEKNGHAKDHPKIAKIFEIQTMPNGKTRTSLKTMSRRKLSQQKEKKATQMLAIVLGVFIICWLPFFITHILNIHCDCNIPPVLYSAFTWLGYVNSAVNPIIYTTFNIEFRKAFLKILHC
Description: as §3, with “human Dopamine Subtype D2s” for “human adrenergic beta 1”, “from Perkin Elmer.” for “from Euroscreen.”, “([…]” for “(50 mM”
Assays were performed in U-bottomed 96-well polypropylene plates. […] For each assay plate 8 replicates were obtained for [^3H]-spiperone binding in the presence of 30 μL vehicle (10% (v/v) DMSO in Assay Buffer; defining maximum binding) or 30 μL Haloperidol (10 μM final concentration; defining non-specific binding (NSB)). Membranes were then added to achieve a final volume of 300 μL. The plates were incubated for 2 hours at room temperature and then filtered onto PEI coated GF/B filter plates, pre-soaked for 1 hour in Assay Buffer, using a 96-well plate Tomtec cell harvester. Five washes with 250 μL wash buffer (50 mM HEPES, 1 mM EDTA, 120 mM NaCl, pH 7.4) were performed at 4° C. to remove unbound radioactivity. The plates were dried then sealed from underneath using Packard plate sealers and MicroScint-O (50 μL) was added to each well. The plates were sealed (TopSeal A) and filter-bound radioactivity was measured with a scintillation counter (TopCount, Packard BioScience) using a 3-minute counting protocol. Total specific binding (B0) was determined by subtracting the mean NSB from the mean maximum binding. NSB values were also subtracted from values from all other wells.

| SMILES | IC50 [1] [nM] | EC50 (Adrenergic β2) [nM] | β2 Int Act (Adrenergic β2) | IC50 [2] [nM] | IC50 [3] [nM] |
| --- | --- | --- | --- | --- | --- |
| O=c1[nH]c2c(O)ccc([C@@H](O)CNCCSCCCNCCc3cccc(C(F)(F)F)c3)c2s1 [Example 18, 4-Hydroxy-7-{(1R)-1-hydroxy-2-[(2-{[3-({2-[3-(trifluoromethyl)phenyl]ethyl}amino)propyl]thio}ethyl)amino]ethyl}-1,3-benzothiazol-2(3H)-one] | 251 | 3.16 | 0.8 | 100 |  |
| Cl.O=c1[nH]c2c(O)ccc([C@@H](O)CNCCCSCCCOCCc3ccccc3)c2s1 [Example 6, 4-Hydroxy-7-{(1R)-1-hydroxy-2-[(3-{[3-(2-phenylethoxy)propyl]thio}propyl)amino]ethyl}-1,3-benzothiazol-2(3H)-one hydrochloride] |  |  | 0.9 | 3.98 |  |
| O=c1[nH]c2c(O)ccc([C@@H](O)CNCCCOCCOCCc3ccccc3)c2s1 [Example 3, 4-Hydroxy-7-[(1R)-1-hydroxy-2-({3-[2-(2-phenylethoxy)ethoxy]propyl}amino)ethyl]-1,3-benzothiazol-2(3H)-one trifluoroacetate] |  | 0.126 | 0.9 |  |  |
| CCc1ccc(CCNCCCSCCNC[C@H](O)c2ccc(O)c3[nH]c(=O)sc23)cc1 [Example 14, 7-[(1R)-2-({2-[(3-{[2-(4-Ethylphenyl)ethyl]amino}propyl)thio]ethyl}amino)-1-hydroxyethyl]-4-hydroxy-1,3-benzothiazol-2(3H)-one] | 100 | 3.98 | 0.9 | 50.1 |  |
| O=c1[nH]c2c(O)ccc([C@@H](O)CNCCSCCCNCCc3cccc(Cl)c3)c2s1 [Example 40, 7-[(1R)-2-({2-[(3-{[2-(3-Chlorophenyl)ethyl]amino}propyl)thio]ethyl}amino)-1-hydroxyethyl]-4-hydroxy-1,3-benzothiazol-2(3H)-one dihydrochloride] |  | 1 | 0.8 |  |  |
| O=c1[nH]c2c(O)ccc([C@@H](O)CNCCCOCCOCCc3cccc4ccccc34)c2s1 [Example 7, 4-Hydroxy-7-{(1R)-1-hydroxy-2-[(3-{2-[2-(1-naphthyl)ethoxy]ethoxy}propyl)amino]ethyl}-1,3-benzothiazol-2(3H)-one] | 631 |  | 1.1 |  |  |
| O=c1[nH]c2c(O)ccc([C@@H](O)CNCCCSCCOCCc3cccc4ccccc34)c2s1 [Example 1, 4-Hydroxy-7-((1R)-1-hydroxy-2-{[3-({2-[2-(1-naphthyl)ethoxy]ethyl}thio)propyl]-amino}ethyl)-1,3-benzothiazol-2(3H)-one trifluoroacetate] |  | 0.1 | 1 |  | 200 |
| O=c1[nH]c2c(O)ccc([C@@H](O)CNCCOCCCNCCc3cccc(Cl)c3)c2s1 [Example 36, 7-((1R)-2-{[2-(3-{[2-(3-Chlorophenyl)ethyl]amino}propoxy)ethyl]amino}-1-hydroxyethyl)-4-hydroxy-1,3-benzothiazol-2(3H)-one] |  |  | 1 | 100 |  |
| O=c1[nH]c2c(O)ccc([C@@H](O)CNCCSCCCNCCc3ccccc3Cl)c2s1 [Example 20, 7-[(1R)-2-({2-[(3-{[2-(2-Chlorophenyl)ethyl]amino}propyl)thio]ethyl}amino)-1-hydroxyethyl]-4-hydroxy-1,3-benzothiazol-2(3H)-one] | 25.1 |  | 0.8 |  |  |
| Cl.O=c1[nH]c2c(O)ccc([C@@H](O)CNCCSCCCNCCc3ccccc3)c2s1 [Example 11, 4-Hydroxy-7-((1R)-1-hydroxy-2-{[2-({3-[(2-phenylethyl)amino]propyl}thio)ethyl]amino}ethyl)-1,3-benzothiazol-2(3H)-one hydrochloride] | 126 |  | 0.9 | 251 |  |
| Cl.O=c1[nH]c2c(O)ccc([C@@H](O)CNCCCSCCOCCc3ccccc3)c2s1 [Example 9, 4-Hydroxy-7-{(1R)-1-hydroxy-2-[(3-{[2-(2-phenylethoxy)ethyl]thio}-propyl)amino]ethyl}-1,3-benzothiazol-2(3H)-one hydrochloride] |  |  | 1 |  |  |
| CCOc1ccc(CCNCCCSCCNC[C@H](O)c2ccc(O)c3[nH]c(=O)sc23)cc1 [Example 16, 7-[(1R)-2-({2-[(3-{[2-(4-Ethoxyphenyl)ethyl]amino}propyl)thio]ethyl}amino)-1-hydroxyethyl]-4-hydroxy-1,3-benzothiazol-2(3H)-one] | 1580 |  | 0.7 |  |  |
